We go through 33 molecules from patent US7960377B2 (priority 2008, dated 2011).

pEC50: −log10 of the molar value.

A word on the pEC50: it is −log10 of the EC50, conventionally taken in molar units. A high value points to a small EC50.

One assay deals with human CB1 receptor (Homo sapiens, UniProt P21554). The assay is described as follows: cell-based.
Chain of human CB1 receptor (P21554 whole entry): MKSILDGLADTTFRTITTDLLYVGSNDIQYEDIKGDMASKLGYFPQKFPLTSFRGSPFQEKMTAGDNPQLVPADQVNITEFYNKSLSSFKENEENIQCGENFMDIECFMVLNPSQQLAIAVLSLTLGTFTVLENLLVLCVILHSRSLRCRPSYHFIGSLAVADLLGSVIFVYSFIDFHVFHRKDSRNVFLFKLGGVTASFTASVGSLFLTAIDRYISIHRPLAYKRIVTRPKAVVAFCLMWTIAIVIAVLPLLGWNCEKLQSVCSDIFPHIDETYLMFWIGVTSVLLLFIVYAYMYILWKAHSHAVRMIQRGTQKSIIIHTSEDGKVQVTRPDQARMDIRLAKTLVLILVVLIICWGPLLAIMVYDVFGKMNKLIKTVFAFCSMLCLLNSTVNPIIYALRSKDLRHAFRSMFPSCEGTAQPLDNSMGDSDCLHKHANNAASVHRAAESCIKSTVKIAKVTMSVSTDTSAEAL
Conditions: not given
Regarding `CC(C)(C)NC(=O)c1cnc2c(c1)N(S(=O)(=O)c1cccnc1)CCO2` [Example 16, N-tert-butyl-1-(pyridin-3-ylsulfonyl)-2,3-dihydro-1H-pyrido[2,3-b][1,4]oxazine-7-carboxamide], the pEC50 was < 4.52.
Regarding `COc1ccc(S(=O)(=O)N2CCOc3ncc(C(=O)NCC(C)(C)O)cc32)cc1F` [Example 105], the pEC50 was < 4.52.
In the case of `CC(C)(C)NC(=O)c1cnc2c(c1)N(S(=O)(=O)Cc1ccccc1)CCO2` [Example 60, 1-(benzylsulfonyl)-N-tert-butyl-2,3-dihydro-1H-pyrido[2,3-b][1,4]oxazine-7-carboxamide], the pEC50 was < 4.52.
Consider `CC(C)CS(=O)(=O)N1CCOc2ncc(C(=O)NC(C)(C)C)cc21` [Example 28, N-tert-butyl-1-(isobutylsulfonyl)-2,3-dihydro-1H-pyrido[2,3-b][1,4]oxazine-7-carboxamide], for which the pEC50 was < 4.52.
As to `O=C(c1cnc2c(c1)N(S(=O)(=O)c1ccc(Cl)c(Cl)c1)CCO2)N1CCC(O)CC1` [Example 127, (1-(3,4-dichlorophenyl-sulfonyl)-2,3-dihydro-1H-pyrido[2,3-b][1,4]oxazin-7-yl)(4-hydroxypiperidin-1-yl)methanone], the negative logarithm of the EC50 (pEC50) is < 4.52.
For `CC(C)(O)CNC(=O)c1cnc2c(c1)N(S(=O)(=O)c1ccc(F)cc1F)CCO2` [Example 106, 1-(2,4-difluorophenylsulfonyl)-N-(2-hydroxy-2-methylpropyl)-2,3-dihydro-1H-pyrido[2,3-b][1,4]oxazine-7-carboxamide], the negative-log EC50 (pEC50) is < 4.52.
For the molecule `CC(C)(C)NC(=O)c1cnc2c(c1)N(Cc1ccccc1)C(=O)CO2` [Example 220, 1-benzyl-N-tert-butyl-2-oxo-2,3-dihydro-1H-pyrido[2,3-b] [1,4]oxazine-7-carboxamide], the pEC50 was < 4.52.
The same measure, in the same setting: next, `O=C(c1cnc2c(c1)N(S(=O)(=O)c1ccc(Cl)c(Cl)c1)CCO2)N1CCC[C@@H]1CO` [Example 122, (R)-(1-(3,4-dichlorophenyl-sulfonyl)-2,3-dihydro-1H-pyrido[2,3-b][1,4]oxazin-7-yl)(2-(hydroxymethyl)pyrrolidin-1-yl)methanone]: < 4.52; `CC(C)(O)CNC(=O)c1cnc2c(c1)N(S(=O)(=O)c1ccc(F)c(Cl)c1)CCO2` [Example 108, 1-(3-chloro-4-fluorophenylsulfonyl)-N-(2-hydroxy-2-methylpropyl)-2,3-dihydro-1H-pyrido[2,3-b][1,4]oxazine-7-carboxamide]: < 4.52.
On to `O=C(c1cnc2c(c1)N(S(=O)(=O)c1ccc(C(F)(F)F)cc1)CCO2)N1CCCCC1CN1CCOCC1` (racemic) [Example 76, +/− (2-(morpholino-methyl)piperidin-1-yl)(1-(4-(trifluoromethyl)-phenylsulfonyl)-2,3-dihydro-1H-pyrido[2,3-b][1,4]oxazin-7-yl)methanone], for which the pEC50 was < 4.52.
Still for that read-out and setting: next, `CC(C)CNS(=O)(=O)N1CCOc2ncc(C(=O)NC(C)(C)CO)cc21` [Example 181, N-(1-hydroxy-2-methylpropan-2-yl)-1-(N-isobutylsulfamoyl)-2,3-dihydro-1H-pyrido[2,3-b][1,4]oxazine-7-carboxamide]: < 4.52; `O=C(OCC1CCCCN1)c1cnc2c(c1)N(S(=O)(=O)c1ccc(C(F)(F)F)cc1)CCO2` (stereo not drawn) [Example 202, piperidin-2-ylmethyl 1-(4-(trifluoromethyl)phenylsulfonyl)-2,3-dihydro-1H-pyrido[2,3-b][1,4]oxazine-7-carboxylate]: < 4.52; `CC(C)(CO)NC(=O)c1cnc2c(c1)N(S(=O)(=O)NCc1ccccc1)CCO2` [Example 179, 1-(N-benzylsulfamoyl)-N-(1-hydroxy-2-methylpropan-2-yl)-2,3-dihydro-1H-pyrido[2,3-b][1,4]oxazine-7-carboxamide]: < 4.52.
`Cc1cc(F)ccc1S(=O)(=O)N1CCOc2ncc(C(=O)NC(C)(C)C)cc21` [Example 56, N-tert-butyl-1-(4-fluoro-2-methylphenylsulfonyl)-2,3-dihydro-1H-pyrido[2,3-b][1,4]oxazine-7-carboxamide]: the negative logarithm of the EC50 (pEC50) is < 4.52.
Turning to `COCCN(C)C(=O)c1cnc2c(c1)N(S(=O)(=O)c1ccc(C(F)(F)F)cc1)CCO2` [Example 35, N-(2-methoxyethyl)-N-methyl-1-(4-(trifluoro-methyl)phenylsulfonyl)-2,3-dihydro-1H-pyrido-[2,3-b][1,4]oxazine-7-carboxamide], the negative-log EC50 (pEC50) was < 4.52.
As to `O=C(c1noc(-c2cnc3c(c2)N(S(=O)(=O)c2ccc(F)cc2)CCO3)n1)N1CCOCC1` [Example 215, (5-(1-(4-fluorophenyl-sulfonyl)-2,3-dihydro-1H-pyrido[2,3-b][1,4]oxazin-7-yl)-1,2,4-oxadiazol-3-yl)(morpholino)methanone], the negative-log EC50 (pEC50) is < 4.52.
For `O=C(NC1CCCC1)c1cnc2c(c1)N(Cc1ccc(Cl)cc1)C(=O)CO2` [Example 222, 1-(4-chlorobenzyl)-N-cyclopentyl-2-oxo-2,3-dihydro-1H-pyrido[2,3-b][1,4]oxazine-7-carboxamide], the pEC50 was < 4.52.
`CC1CC(C)CN(C(=O)c2cnc3c(c2)N(S(=O)(=O)c2ccc(C(F)(F)F)cc2)CCO3)C1` (stereo not drawn) [Example 200, (3,5-dimethylpiperidin-1-yl)(1-(4-(trifluoromethyl)phenylsulf-onyl)-2,3-dihydro-1H-pyrido[2,3-b][1,4]oxazin-7-yl)methanone]: the negative-log EC50 (pEC50) was < 4.52.
In the case of `O=C(NC1CCCC1)c1cnc2c(c1)N(Cc1ccccc1)C(=O)CO2` [Example 219, 1-benzyl-N-cyclopentyl-2-oxo-2,3-dihydro-1H-pyrido[2,3-b] [1,4]oxazine-7-carboxamide], the negative logarithm of the EC50 (pEC50) is < 4.52.
As for `COC(=O)CC1CCCCN1C(=O)c1cnc2c(c1)N(S(=O)(=O)c1ccc(C(F)(F)F)cc1)CCO2` (racemic) [Example 73, +/− methyl 2-(1-(1-(4-(trifluoromethyl)phenylsulf-onyl)-2,3-dihydro-1H-pyrido[2,3-b][1,4]oxazine-7-carbonyl)piperidin-2-yl)acetate], the pEC50 is < 4.52.
Take `CN(C)S(=O)(=O)N1CCOc2ncc(C(=O)NC(C)(C)CO)cc21` [Example 144, 1-(N,N-dimethyl-sulfamoyl)-N-(1-hydroxy-2-methylpropan-2-yl)-2,3-dihydro-1H-pyrido[2,3-b][1,4]oxazine-7-carboxamide]: the pEC50 is < 4.52.
For the molecule `CCC(C)(C)NC(=O)c1cnc2c(c1)N(S(=O)(=O)N1CCN(C)CC1)CCO2` [Example 175, 1-(4-methylpiperazin-1-ylsulfonyl)-N-tert-pentyl-2,3-dihydro-1H-pyrido[2,3-b][1,4]oxazine-7-carboxamide], the negative logarithm of the EC50 (pEC50) was < 4.52.
Turning to `O=C(c1cnc2c(c1)N(S(=O)(=O)c1ccc(C(F)(F)F)cc1)CCO2)N1CCCCC1CN1CCCC1` (racemic) [Example 75, +/− (2-(pyrrolidin-1-ylmethyl)piperidin-1-yl)(1-(4-(trifluoromethyl)-phenylsulfonyl)-2,3-dihydro-1H-pyrido[2,3-b][1,4]oxazin-7-yl)-methanone], the negative-log EC50 (pEC50) was < 4.52.
For `O=C(NCCO)c1cnc2c(c1)N(S(=O)(=O)c1ccc(Cl)c(Cl)c1)CCO2` [Example 114, 1-(3,4-dichlorophenyl-sulfonyl)-N-(2-hydroxyethyl)-2,3-dihydro-1H-pyrido[2,3-b][1,4]oxazine-7-carboxamide], the pEC50 is < 4.52.
With `COCCN(C)C(=O)c1cnc2c(c1)N(S(=O)(=O)c1ccc(Cl)cc1)CCO2` [Example 34, 1-(4-chlorophenyl-sulfonyl)-N-(2-methoxy-ethyl)-N-methyl-2,3-dihydro-1H-pyrido[2,3-b][1,4]oxazine-7-carboxamide], the pEC50 is < 4.52.
For the molecule `CC(C)(CN1CCCC1)NC(=O)c1cnc2c(c1)N(S(=O)(=O)c1ccc(C(F)(F)F)cc1)CCO2` [Example 37, N-(2-methyl-1-(pyrrolidin-1-yl)propan-2-yl)-1-(4-(trifluoromethyl)phenylsulf-onyl)-2,3-dihydro-1H-pyrido[2,3-b][1,4]oxazine-7-carboxamide], the pEC50 is < 4.52.
Regarding `CN1CCN(C(=O)c2cnc3c(c2)N(S(=O)(=O)c2ccc(Cl)c(Cl)c2)CCO3)CC1` [Example 123, (1-(3,4-dichlorophenyl-sulfonyl)-2,3-dihydro-1H-pyrido [2,3-b][1,4]oxazin-7-yl)(4-methylpiperazin-1-yl)methanone], the pEC50 was < 4.52.
Consider `COc1ccc(S(=O)(=O)N2CCOc3ncc(C(=O)NCC(C)(C)O)cc32)c(F)c1` [Example 107], for which the negative-log EC50 (pEC50) was < 4.52.
`O=C(c1cnc2c(c1)N(S(=O)(=O)c1ccc(C(F)(F)F)cc1)CCO2)N1CCCCC1` [Example 49, piperidin-1-yl(1-(4-(trifluoromethyl)phenylsulf-onyl)-2,3-dihydro-1H-pyrido[2,3-b][1,4]oxazin-7-yl)methanone]: the negative-log EC50 (pEC50) is < 4.52.
On the same count and under the same terms, next, `CC(C)(C)NC(=O)c1cnc2c(c1)N(S(=O)(=O)Cc1ccc(F)cc1)CCO2` [Example 62, N-tert-butyl-1-(4-fluorobenzylsulfonyl)-2,3-dihydro-1H-pyrido[2,3-b][1,4]oxazine-7-carboxamide]: < 4.52.
On to `CC(C)(C)N(CCC#N)C(=O)c1cnc2c(c1)N(S(=O)(=O)c1ccc(C(F)(F)F)cc1)CCO2` [Example 41, N-tert-butyl-N-(2-cyanoethyl)-1-(4-(trifluoromethyl)phenylsulf-onyl)-2,3-dihydro-1H-pyrido[2,3-b][1,4]oxazine-7-carboxamide], for which the pEC50 was < 4.52.

The assay is the same for the next values; noted with them: asterisk at the compound number.
Regarding `CC(C)(C)NC(=O)c1cnc2c(c1)N(S(=O)(=O)c1ccc(Oc3ccccc3)cc1)CCO2` [Example 93, N-tert-butyl-1-(4-phenoxyphenylsulfonyl)-2,3-dihydro-1H-pyrido[2,3-b][1,4]oxazine-7-carboxamide], the “inverse agonist mark, human CB1 receptor” value is reported as 2, 3, 5, 7, 8, 10, 39, 58, 61*, 69, 93*, 101, 102, 109, 110, 111, 112,.
The same measure, in the same setting: next, `O=C(c1cnc2c(c1)N(S(=O)(=O)c1ccc(Cl)c(Cl)c1)CCO2)N1CCC1` [Example 130, azetidin-1-yl(1-(3,4-dichlorophenylsulfonyl)-2,3-dihydro-1H-pyrido[2,3-b][1,4]oxazin-7-yl)methanone]: 130*, 136, 141, 142, 149, 156, 157, 163, 164, 168, 173, 183, 195,.
